Where two headings read alike, the source gives them in different places. No end group written: not given here.
Target: T1, APC (Homo sapiens, UniProt P04070)
T1 construct: begins at amino acid residue position 158 and ends at 419; The light chain is 155 amino acid residues in length; tissue Factor IX concentrate from Immuno AG, Vienna; thrombin from Enzyme Research Laboratories
Test: APC anticoagulant activity, APTT and Xa-1-stage coagulation assays (mean or both)
Type: biochemical
Conditions: for IC50: final peptide concentration at which 50% inhibition of APC activity was observed; for inhibition at 500 µM: 500 μM peptide, mean of APTT and Xa-1-stage assays, 0 = no observable effect ± 10%
Description: The effect of the synthetic peptides on APC anticoagulant activity were determined using the APTT assay in the presence of either normal citrate anticoagulated plasma (NHP) or protein S depleted plasma (PSDP). The assays were performed essentially as described. See Marlar et al., Blood, 59:1067-1072 […]; Suzuki et al., J. Biol. Chem., 258:163-168 (1983); Gruber et al., Blood, 73:639-642 (1989); Ohlin et al., Biochem., 29:644-651 (1990). NHP was purchased from George King Bio-Medical, Inc. (Overland Park, Kans.). PSDP was prepared from a normal human citrate-anticoagulated plasma pool from ten healthy donors. Protein S was immunodepleted from the NHP by immunoaffinity chromatography of NHP over an anti-protein S antibody column to form PSDP. The anti-protein S antibody column was prepared by coupling 100 mg of a monoclonal, high-affinity, calcium-independent anti-PS antibody, designated S7, to 30 ml of CNBr-activated Sepharose 4B (Pharmacia) as described in Example 2c1).
For the APTT assay, APC was prepared as described in Example 2c2). […] The concentration of the APC used in the assay was initially optimized with respect to the sensitivity of the assay towards APC-induced prolongation of clotting time compared to clotting time without APC.
Once the optimal concentration of APC was determined, peptides from Table 2 were then separately admixed for a final concentration of 500 μM with 10 nM APC in 100 μl of TBS-BSA at pH 7.4 to form peptide-APC admixtures. The resulting admixtures were maintained for seven minutes at 37° C. Separate aliquots of peptides maintained under the same conditions in the absence of APC served as controls for the inhibitory effect of synthetic peptides on APC anticoagulant activity. After the maintenance period, 100 μl of NHP and 100 μl APTT-reagent Thrombosil (Ortho Diagnostics, Raritan, N.J.) were admixed into each peptide admixture and maintained for 200 seconds at 37° C. to form a pre-coagulation admixture. In some experiments, PSDP was used in the place of NHP to determine the effect of Protein S on the assay system. Coagulation was then initiated by the admixture of 100 μl of 30 mM CaCl2 in TBS prewarmed to 37° C. to each of the pre-coagulation admixtures. The time for clot formation was measured by an Electra 700 Automatic Coagulation Timer (Medical Laboratory Automation, Inc., Mount Vernon, N.Y.). Each peptide's effect was determined in duplicate.
The synthetic peptides listed in Table 4 are presented in the same order as listed in Table 2, i.e., are reproduced from Table 2. […] For peptides at a concentration of 500 μM that inhibited at least 50% of APC anticoagulant activity, analysis of dose-response was subsequently conducted. The column in Table 4 labeled "Inhibition of APC" represents the inhibition of APC anticoagulant activity measured with 500 μM peptide.
For testing the inhibition of the synthetic peptides on APC activity described above, Xa-1-stage coagulation assays were also performed as described. See Seegers et al., Thrombosis Res., 13:233-243 (1978); Marlar et al., supra; and Walker et al., J. Biol. Chem. 265:1484-1489 (1990).

[1] = final peptide concentration at which 90% inhibition of APC activity was observed, read-out: IC90

T1 sequence (P04070 212-461): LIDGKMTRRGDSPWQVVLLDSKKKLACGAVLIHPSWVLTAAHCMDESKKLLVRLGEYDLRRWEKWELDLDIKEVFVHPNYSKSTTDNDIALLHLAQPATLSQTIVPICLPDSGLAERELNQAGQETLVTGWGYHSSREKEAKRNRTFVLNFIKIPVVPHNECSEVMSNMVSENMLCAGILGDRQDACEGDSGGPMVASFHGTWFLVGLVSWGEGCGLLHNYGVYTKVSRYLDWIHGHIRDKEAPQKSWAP
T1 sequence (P04070 43-197): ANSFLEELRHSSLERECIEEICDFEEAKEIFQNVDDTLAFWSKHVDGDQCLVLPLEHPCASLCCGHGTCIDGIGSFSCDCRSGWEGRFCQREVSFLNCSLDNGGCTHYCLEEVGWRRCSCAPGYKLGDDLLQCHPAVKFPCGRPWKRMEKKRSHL

| Substance | IC90 | IC50 | inhibition at 500 µM | IC90 [1] |
| --- | --- | --- | --- | --- |
| KRNRTFVLNFIKIPV-NH2 [peptide-(311-325), KRNRTFVLNFIKIPV] | 50 µM | 20 µM | – | – |
| SGLLHNYGVYTKVSR-NH2 [peptide-(384-398), -SGLLHNYGVYTKVSR] | – | – | 60% | > 500 µM |
| YGVYTKVSRYLDWIH-NH2 [peptide-(390-404), YGVYTKVSRYLDWIH] | – | 5 µM | 100% | 40 µM |
